In brackets after ≈: the same amount, converted by molar mass.
How the values were obtained:
[1] = In vivo pharmacokinetic study in rats, intravenous; conditions: rat, 2 mg/kg
Protocol: Rats were used as test subjects. […] This study evaluated the pharmacokinetic behavior of the compounds in rats and assessed their pharmacokinetic characteristics.
Intravenous push injection was performed over approximately 5 minutes, with a dose of 2 mg/kg, a concentration of 0.4 mg/mL, and a volume of 5 mL/kg.
(§1) Sodium heparin was used as an anticoagulant. Immediately after collection, whole blood proteins were precipitated using methanol:acetonitrile (1:1), and the supernatant was transferred for LC/MS/MS analysis.

[2] = Pharmacokinetic study in crab-eating monkeys, intravenous infusion; conditions: monkey, 2 mg/kg
Protocol: Crab-eating monkeys were used as test subjects.
Intravenous infusion was performed over 30 minutes, with a dose of 2 mg/kg, a concentration of 0.4 mg/mL, and a volume of 5 mL/kg.
as §1

[3] = Liver S9 stability assay (conversion to parent drug); format: in vitro ADME; conditions: human liver S9 with NADPH, 37 °C
Protocol: Human pooled liver S9 (Vendor: Xenotech), thawed in a 37°C water bath before use.
Weigh a certain amount of the example compound, dissolve in DMSO to prepare a 10 mM stock solution, then dilute an appropriate volume of the stock solution with DMSO to obtain a 200 µM working solution.
Take 1.5 µL of the 200 µM working solution of the example compound and add it to 238.5 µL of liver S9 working solution, pre-incubate in a 37°C water bath for 5 min; then add 60 µL of NADPH working solution to initiate the reaction and mix by gentle inversion. At the 0 min time point, transfer the above mixture into quenching solution and mix; at the 5, 15, 30, and 60 min time points, transfer the mixture into quenching solution and DMSO and mix. […] Collect the supernatant for LC-MS analysis.

[4] = Thermodynamic solubility; format: physicochemical; conditions: aqueous buffer, thermodynamic from solid; 100 mM phosphate buffer pH 7.4, room temperature, shaking 16 hours
Protocol: 100 mM phosphate buffer solution: Dissolve 7.94 g of K2HPO4.3H2O and 2.07 g of KH2PO4 in 500 mL ultrapure water. Adjust the solution pH to 7.4 with 1 N NaOH, then filter and set aside.
Accurately weigh an appropriate amount of the example compound and add it in small portions to 100 mM phosphate buffer solution to prepare a final concentration of 20 mg/mL. After shaking at room temperature for 16 hours, let stand for 30 min, then filter the supernatant and dilute with DMSO. Add the diluted sample solution to quenching solution, mix thoroughly, and analyze by LC/MS.

[5] = tested on: red blood cell suspension; experiment: In vitro human hemolysis assay; format: cell-based; conditions: concentrations as high as 200 µM, 37 °C, 45 minutes
Protocol: Collect the whole blood and store it in a 250 mL Erlenmeyer flask. Shake at 500 rpm for 10 minutes to remove fibrinogen, producing defibrinated blood. Wash with physiological saline (blood volume: saline volume = 1:4). Centrifuge the blood/saline mixture at 2500 rpm for 15 minutes at 4°C, discard the supernatant. Wash the sedimented red blood cells several times with physiological saline (blood volume: saline volume = 1:4) and centrifuge at 2500 rpm for 15 minutes until the supernatant is no longer red. Prepare a red blood cell suspension using physiological saline at a ratio of 1:49 (cell volume: saline volume) and store at 4°C until use.
Observe for aggregation every 15 minutes. • 3) Centrifuge the resulting solution at 4000 rpm for 15 minutes at 4°C. Transfer 100 µL of the supernatant and measure absorbance at 540 nm to calculate the hemolysis rate (%).

[6] = Plasma stability assay (conversion to parent drug); format: in vitro ADME; conditions: human plasma, 37 °C, 1 µM
Protocol: Human plasma (Vendor: AoNeng Biotech).
A certain amount of the compound of the examples was weighed and dissolved in DMSO to prepare a 10 mM stock solution. An aliquot of the 10 mM stock solution was diluted with DMSO to obtain a 1600 µM intermediate solution. An aliquot of the 1600 µM intermediate solution was further diluted with 45% methanol to prepare a 16 µM working solution.
• 1) Plasma was pre-incubated in a water bath at 37 °C for 5 min. • 2) 4 µL of the 16 µM working solution of the compound of the examples was added to 60 µL of plasma to give a final compound concentration of 1 µM, and the mixture was gently mixed. • 3) Samples were incubated at each time point (0, 15, 30, 60, and 120 min). After incubation, 192 µL of acetonitrile containing an internal standard was added, followed by shaking on a shaker for 1 min. The mixture was centrifuged at 3700 rpm at 4 °C for 20 min, and the supernatant was collected for LC-MS analysis.

[7] = time point 0 min, parent drug = Lorapiprant

Row | SMILES | AUC(0-t) ([1]; whole blood) | Cmax ([1]; whole blood) | MRT inf ([1]; whole blood) | Tmax ([1]; whole blood) | half-life ([1]; whole blood) | Parent drug% [3, 7] | Parent drug% ([3]; time point 5 min) | Parent drug% ([3]; time point 15 min) | Parent drug% ([3]; time point 30 min) | Parent drug% ([3]; time point 60 min) | solubility at 16 h [4] | further results
1 | C[C@@H](OC[C@@]1(c2ccccc2)CC[C@]2(CCC(=O)N2)CN1C(=O)OCOP(=O)(O)O)c1cc(C(F)(F)F)cc(C(F)(F)F)c1 [Compound of formula (I), reference compound] | 82.6 ng·h/mL | 328 ng/mL | 21 min | 5 min | 26.3 min | – | – | – | – | – | – | AUC(0-t) ([2]; whole blood): 688 ng·h/mL; Cmax ([2]; whole blood): 2110 ng/mL; Tmax ([2]; whole blood): 30 min; half-life ([2]; whole blood): 9.06 min
2 | C[C@@H](OC[C@@]1(c2ccccc2)CC[C@]2(CCC(=O)N2)CN1C(=O)OCSSCCC(=O)O)c1cc(C(F)(F)F)cc(C(F)(F)F)c1 [Example 33] | – | – | – | – | – | 13.2% | 22.5% | 41.9% | 50.0% | 57.3% | – | –
3 | C[C@@H](OC[C@@]1(c2ccccc2)CC[C@]2(CCC(=O)N2)CN1C(=O)OCSSCCCOS(=O)(=O)O)c1cc(C(F)(F)F)cc(C(F)(F)F)c1 [Example 39] | 19.9 ng·h/mL | 116 ng/mL | 7.56 min | 5 min | 8.34 min | – | – | – | – | – | 6.54 mg/mL (≈ 8.6 mM) | hemolytic activity [5]: no hemolytic activity
4 | C[C@@H](OC[C@@]1(c2ccccc2)CC[C@]2(CCC(=O)N2)CN1C(=O)OCSSCCS(=O)(=O)O)c1cc(C(F)(F)F)cc(C(F)(F)F)c1 [Example 42] | – | – | – | – | – | 34.8% | 40.6% | 48.5% | 51.9% | 44.0% | 13.2 mg/mL (≈ 18.1 mM) | Parent drug% [6, 7]: 6.09%; Parent drug% ([6]; time point 15 min): 52.71%; Parent drug% ([6]; time point 30 min): 60.94%; Parent drug% ([6]; time point 60 min): 53.88%; Parent drug% ([6]; time point 120 min): 66.59%; AUC(0-t) ([1]; in vivo): 9.42 ng·h/mL; Cmax ([1]; in vivo): 61.2 ng/mL; MRT inf ([1]; in vivo): 5.45 min; Tmax ([1]; in vivo): 5 min; half-life ([1]; in vivo): 4.66 min; AUC(0-t) ([2]; in vivo): 528 ng·h/mL; Cmax ([2]; in vivo): 1620 ng/mL; Tmax ([2]; in vivo): 30 min; half-life ([2]; in vivo): 6.06 min
5 | C[C@@H](OC[C@@]1(c2ccccc2)CC[C@]2(CCC(=O)N2)CN1C(=O)OCSSCCOCCOCCOCCC(=O)O)c1cc(C(F)(F)F)cc(C(F)(F)F)c1 [Example 47] | – | – | – | – | – | – | – | – | – | – | 10.9 mg/mL (≈ 13.2 mM) | –

— EP4741406A1, “NEUROKININ-1 RECEPTOR ANTAGONIST COMPOUND” (Creadev (Nanjing) Pharmaceutical Technology Co., Ltd., priority 2023, dated 2025)
